Results from patent US20120128860A1, “PREPARATION OF VEGETABLE MATERIAL AND FOOD PRODUCTS” (priority 2009, published 2012).

Tested on: tobacco plants (Nicotiana tabacum)
Test: Chlorophyll a and b content of tobacco leaves after pre-harvest kinetin treatment, soaking and storage
Type: in vivo
Parameters: reduction after 27 d (chlorophyll): concentration or dose not given beside the values
Details: cytokinin 5 days pre-harvest; for reduction after 27 d (chlorophyll): 27 d storage; for chlorophyll level after 0 d storage / chlorophyll level after 3 d storage / chlorophyll level after 7 d storage / chlorophyll level after 10 d storage / chlorophyll level after 14 d storage / chlorophyll level after 20 d storage / chlorophyll level after 27 d storage: stored 4° C. dark
Protocol: Determination of chlorophyll contents of fresh leaves using a spectrophotometer. Procedure: • 1. Homogenisation of plant tissue (100 mg) in liquid nitrogen. For each data point at least three biological samples were harvested. • 2. Addition of 400 microliter acetone in 10 micromolar KOH and subsequent vortexing • 3. Centrifugation of the homogenate at 13,000 rpm for 10 min to remove cell debris and proteins • 4. Transfer of the supernatant into new test tubes • 5. Addition 200 microliter of extraction mixture to the pellet as mentioned above and vortexing • 6. Centrifugation of the homogenate at 13,000 rpm for 10 min • 7. Mix of the supernatant with the supernatant from step 4 • 8. Repeat of steps 5-7 three times until the pellet is completely white • 9. Dilution of the sample 1:10 in acetone and measurement of absorption at 664, 646/7 and 750 nm in a spectrophotometer. All absorbance measurements at the indicated wavelength need subtraction of the absorbance at 750 nm. Calculation of the chlorophyll contents by comparing with calibration curves.
Determination of chlorophyll contents of leaves by HPLC. Procedure: • 1. Homogenisation of 100 mg plant material in liquid nitrogen in a test tube • 2. Addition of 500 microliter acetone with 10 micromolar KOH and vortexing. • 3. Centrifugation of the suspension for 10 min at 4° C. at 13.000 rpm. • 4. The supernatant is transferred into new test tube • 5. Addition of 500 microliter acetone to the pellet and resuspension of the pellet • 6. Centrifugation for 10 min at 4° C. at 13.000 rpm. • 7. The supernatant is combined with the supernatant from step 4 • 8. The samples are vortexed and centrifuged for 10 min at 4° C. at 13,000 rpm. • 9. A 40 microliter aliquot of the extract is mixed with 160 microliter water • 10. The sample is transferred into a HPLC vial • 11. An aliquot of 10-100 microliter is injected into the HPLC column (RP C18 column) • 12. Running buffers: Acetonitril/H2O/triethylamine (1798:200:2) and ethyl acetate
Objective of the experiments: to combine effects of pre-harvest treatment of tobacco plants with the growth hormone kinetin and subsequently soaking with a buffer solution on the stability of chlorophyll after heat treatment followed by different storage periods.
A 1 mM kinetin solution in water was made by dissolving kinetin dropwise with 10 microliter 1M NaOH, then the solution was neutralized to pH 7.0 with HCl. This 1 mM kinetin aqueous solution was injected into the leaves of growing tobacco plants (Nicotiana tabacum). The application of cytokinin was repeated once a day for five successive days. At day 7, tobacco leaves were harvested and stored in aluminium foils. Control plants were treated with the same solution at pH 7.0 (in water), but without kinetin.
After harvest, leaves of the harvested plants (both treated with cytokinin, as well as the control plants) were separated in batches, which were subsequently treated at different temperatures in one the following ways: • 1. leaves were soaked in tap water during 1 minute at room temperature; • 2. leaves were soaked in a buffer solution of pH 7.2 during 1 minute at room temperature; • 3. leaves were soaked in tap water during 1 minute at 70° C.; • 4. leaves were soaked in a buffer solution of pH 7.2 during 1 minute at 70° C.; • 5. leaves were soaked in tap water during 1 minute at 90° C.; • 6. leaves were soaked in a buffer solution of pH 7.2 during 1 minute at 90° C.;
Immediately after each of these steps, the soaked leaves were cooled shortly in a cold tap water bath at 3° C.
The aqueous buffer solution contained 137 mM NaCl, 2.7 mM KCL, 10 mM Na2HPO4 and 2 mM KH2PO4, and was adjusted to pH 7.2 with more hydrogen phosphate or dihydrogenphosphate if required.
Finally the chlorophyll content of the leaves was quantified after storage in tissue papers at 4° C. in the dark at various moments in time. […]

[1] = soaked 1 min in buffer pH 7.2 at 70° C.
[2] = soaked 1 min in buffer pH 7.2 at 90° C.
[3] = soaked 1 min in buffer pH 7.2 at room temperature
[4] = soaked 1 min in water at 70° C.
[5] = soaked 1 min in water at 90° C.
[6] = soaked 1 min in water at room temperature

c1coc(CNc2ncnc3[nH]cnc23)c1 [cytokinin, 6-furfurylaminopurine]
reduction after 27 d (chlorophyll) [1]: 11%
chlorophyll level after 0 d storage [1]: 18 micromole per gram fresh weight
chlorophyll level after 3 d storage [1]: 17.5 micromole per gram fresh weight
chlorophyll level after 7 d storage [1]: 17.2 micromole per gram fresh weight
chlorophyll level after 10 d storage [1]: 17 micromole per gram fresh weight
chlorophyll level after 14 d storage [1]: 17 micromole per gram fresh weight
chlorophyll level after 20 d storage [1]: 16.8 micromole per gram fresh weight
chlorophyll level after 27 d storage [1]: 16 micromole per gram fresh weight
chlorophyll level after 0 d storage [2]: 18 micromole per gram fresh weight
chlorophyll level after 3 d storage [2]: 17.5 micromole per gram fresh weight
chlorophyll level after 7 d storage [2]: 17 micromole per gram fresh weight
chlorophyll level after 10 d storage [2]: 16.5 micromole per gram fresh weight
chlorophyll level after 14 d storage [2]: 16 micromole per gram fresh weight
chlorophyll level after 20 d storage [2]: 15.5 micromole per gram fresh weight
chlorophyll level after 27 d storage [2]: 15 micromole per gram fresh weight
reduction after 27 d (chlorophyll) [3]: 17%
chlorophyll level after 0 d storage [3]: 18.5 micromole per gram fresh weight
chlorophyll level after 3 d storage [3]: 17.5 micromole per gram fresh weight
chlorophyll level after 7 d storage [3]: 16.5 micromole per gram fresh weight
chlorophyll level after 10 d storage [3]: 15.5 micromole per gram fresh weight
chlorophyll level after 14 d storage [3]: 16 micromole per gram fresh weight
chlorophyll level after 20 d storage [3]: 15.5 micromole per gram fresh weight
chlorophyll level after 27 d storage [3]: 15 micromole per gram fresh weight
chlorophyll level after 0 d storage [4]: 17.5 micromole per gram fresh weight
chlorophyll level after 3 d storage [4]: 17 micromole per gram fresh weight
chlorophyll level after 7 d storage [4]: 16.5 micromole per gram fresh weight
chlorophyll level after 10 d storage [4]: 16.5 micromole per gram fresh weight
chlorophyll level after 14 d storage [4]: 16 micromole per gram fresh weight
chlorophyll level after 20 d storage [4]: 16 micromole per gram fresh weight
chlorophyll level after 27 d storage [4]: 15.5 micromole per gram fresh weight
reduction after 27 d (chlorophyll) [5]: 50%
chlorophyll level after 0 d storage [5]: 15 micromole per gram fresh weight
chlorophyll level after 3 d storage [5]: 13.5 micromole per gram fresh weight
chlorophyll level after 7 d storage [5]: 12.5 micromole per gram fresh weight
chlorophyll level after 10 d storage [5]: 11 micromole per gram fresh weight
chlorophyll level after 14 d storage [5]: 9.8 micromole per gram fresh weight
chlorophyll level after 20 d storage [5]: 8.8 micromole per gram fresh weight
chlorophyll level after 27 d storage [5]: 7.5 micromole per gram fresh weight
reduction after 27 d (chlorophyll) [6]: 9%
chlorophyll level after 0 d storage [6]: 18 micromole per gram fresh weight
chlorophyll level after 3 d storage [6]: 17.8 micromole per gram fresh weight
chlorophyll level after 7 d storage [6]: 17.2 micromole per gram fresh weight
chlorophyll level after 10 d storage [6]: 16.5 micromole per gram fresh weight
chlorophyll level after 14 d storage [6]: 16.2 micromole per gram fresh weight
chlorophyll level after 20 d storage [6]: 16 micromole per gram fresh weight
chlorophyll level after 27 d storage [6]: 16 micromole per gram fresh weight
